Results reported in patent US10538555B2, “Macrocyclic inhibitors of the PD-1/PD-L1 and CD80(B7-1)/PD-L1 protein/protein interactions” (BRISTOL-MYERS SQUIBB COMPANY, priority 2014, dated 2020).
Where a SMILES comes first, the peptide text is derived from it. Bridges are numbered along the chain shown (N, C = ends). [ ]: non-standard residue; d: D form. Phe(3,4,5-F3) = N[C@@H](Cc1cc(F)c(F)c(F)c1)C(=O)O; NMePhe(4-F) = CN[C@@H](Cc1ccc(F)cc1)C(=O)O; NMeF = CN[C@@H](Cc1ccccc1)C(=O)O; dHyp = O=C(O)[C@H]1C[C@H](O)CN1; NMeNle = CCCC[C@H](NC)C(=O)O; dPip = O=C(O)[C@H]1CCCCN1; Dab = NCC[C@H](N)C(=O)O; Dap = NC[C@H](N)C(=O)O

Molecular target: T1, Human PD-L1/PD-1 (Homo sapiens, UniProt Q9NZQ7)
T1 construct: TVMV protease cleavage site (C); made in house; host or cells: HEK293T cells
T1 sequence (Q9NZQ7 with tags, fused parts or gaps): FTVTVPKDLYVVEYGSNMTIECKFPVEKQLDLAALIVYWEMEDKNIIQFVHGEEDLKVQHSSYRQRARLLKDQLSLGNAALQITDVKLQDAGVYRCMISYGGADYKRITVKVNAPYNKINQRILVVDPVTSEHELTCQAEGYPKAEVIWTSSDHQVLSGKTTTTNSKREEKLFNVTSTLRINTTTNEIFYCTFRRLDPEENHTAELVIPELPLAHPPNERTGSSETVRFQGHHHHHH
Assay: HTRF Human PD-L1/PD-1 binding assay (PD-1-Ig/PD-L1-His)
Settings: PD-L1-His 10 nM, PD-1-Ig 20 nM; class symbol; read-out: HTRF Human PD-L1/PD-1 Binding Assay IC50 Range
Method in brief: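 HTRF read-out (665/620 nm ratio) after 30 min equilibration with Eu-cryptate anti-Ig mAb (1 nM) and APC anti-His mAb (20 nM). Peptides preincubated 15 min with PD-L1-His (10 nM), then PD-1-Ig (20 nM) added for 15 min.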

Compound: CCCC[C@H]1C(=O)N2CCC[C@@H]2C(=O)N[C@@H](CC(=O)O)C(=O)N[C@@H](C(C)C)C(=O)N(C)[C@@H](Cc2ccccc2)C(=O)N[C@@H](CCC(=O)O)C(=O)N2CCCC[C@@H]2C(=O)N[C@@H](Cc2c[nH]c3ccccc23)C(=O)N[C@@H](Cc2ccc(O)cc2)C(=O)N[C@@H](CCC(N)=O)C(=O)N[C@H](C(=O)NCC(N)=O)CSCC(=O)N[C@@H](Cc2cc(F)c(F)c(F)c2)C(=O)N(C)[C@@H](Cc2ccc(F)cc2)C(=O)N1C [Example 10563] ({CH2CO}-[Phe(3,4,5-F3)][NMePhe(4-F)][NMeNle][dP]DV[NMeF]E[dPip]WYQCG-NH2; thioether N-13)
- IC50: 1 to 9.9 nM

Compound: CCCC[C@H]1C(=O)N2CCC[C@@H]2C(=O)N[C@@H](CC(=O)O)C(=O)N[C@@H](C(C)C)C(=O)N(C)[C@@H](Cc2ccccc2)C(=O)N[C@@H](CCC(=O)O)C(=O)N2CCCC[C@@H]2C(=O)N[C@@H](Cc2c[nH]c3ccccc23)C(=O)N[C@@H](Cc2ccc(O)cc2)C(=O)N[C@@H](CCCCN)C(=O)N[C@H](C(=O)NCC(N)=O)CSCC(=O)N[C@@H](Cc2cc(F)c(F)c(F)c2)C(=O)N(C)[C@@H](Cc2ccc(F)cc2)C(=O)N1C [Example 10564] ({CH2CO}-[Phe(3,4,5-F3)][NMePhe(4-F)][NMeNle][dP]DV[NMeF]E[dPip]WYKCG-NH2; thioether N-13)
- IC50: 1 to 9.9 nM

Compound: CCCC[C@H]1C(=O)N2CCC[C@@H]2C(=O)N[C@@H](CC(=O)O)C(=O)N[C@@H](C(C)C)C(=O)N(C)[C@@H](Cc2ccccc2)C(=O)N[C@@H](CCC(=O)O)C(=O)N2CCCC[C@@H]2C(=O)N[C@@H](Cc2c[nH]c3ccccc23)C(=O)N[C@@H](Cc2ccc(O)cc2)C(=O)N[C@@H](CO)C(=O)N[C@H](C(=O)NCC(N)=O)CSCC(=O)N[C@@H](Cc2cc(F)c(F)c(F)c2)C(=O)N(C)[C@@H](Cc2ccc(F)cc2)C(=O)N1C [Example 10565] ({CH2CO}-[Phe(3,4,5-F3)][NMePhe(4-F)][NMeNle][dP]DV[NMeF]E[dPip]WYSCG-NH2; thioether N-13)
- IC50: 1 to 9.9 nM

Compound: CCCC[C@H]1C(=O)N2C[C@@H](O)C[C@@H]2C(=O)N[C@@H](CC(=O)O)C(=O)N[C@@H](C(C)C)C(=O)N(C)[C@@H](Cc2ccccc2)C(=O)N[C@@H](CCC(=O)O)C(=O)N2CCCC[C@@H]2C(=O)N[C@@H](Cc2c[nH]c3ccccc23)C(=O)N[C@@H](Cc2ccc(O)cc2)C(=O)N[C@@H](CCN)C(=O)N[C@H](C(=O)NCC(N)=O)CSCC(=O)N[C@@H](Cc2cc(F)c(F)c(F)c2)C(=O)N(C)[C@@H](Cc2ccc(F)cc2)C(=O)N1C [Example 10566] ({CH2CO}-[Phe(3,4,5-F3)][NMePhe(4-F)][NMeNle][dHyp]DV[NMeF]E[dPip]WY[Dab]CG-NH2; thioether N-13)
- IC50: 1 to 9.9 nM

Compound: CCCC[C@H]1C(=O)N2C[C@@H](O)C[C@@H]2C(=O)N[C@@H](CC(=O)O)C(=O)N[C@@H](C(C)C)C(=O)N(C)[C@@H](Cc2ccccc2)C(=O)N[C@@H](CCC(=O)O)C(=O)N2CCCC[C@@H]2C(=O)N[C@@H](Cc2c[nH]c3ccccc23)C(=O)N[C@@H](Cc2ccc(O)cc2)C(=O)N[C@@H](CN)C(=O)N[C@H](C(=O)NCC(N)=O)CSCC(=O)N[C@@H](Cc2cc(F)c(F)c(F)c2)C(=O)N(C)[C@@H](Cc2ccc(F)cc2)C(=O)N1C [Example 10567] ({CH2CO}-[Phe(3,4,5-F3)][NMePhe(4-F)][NMeNle][dHyp]DV[NMeF]E[dPip]WY[Dap]CG-NH2; thioether N-13)
- IC50: 1 to 9.9 nM

Compound: CCCC[C@H]1C(=O)N2CCC[C@@H]2C(=O)N[C@@H](CC(=O)O)C(=O)N[C@@H](C(C)C)C(=O)N(C)[C@@H](Cc2ccccc2)C(=O)N[C@@H](CCC(=O)O)C(=O)N2CCCC[C@@H]2C(=O)N[C@@H](Cc2c[nH]c3ccccc23)C(=O)N[C@@H](Cc2ccc(O)cc2)C(=O)N[C@@H](CCN)C(=O)N[C@H](C(=O)NCC(N)=O)CSCC(=O)N[C@@H](Cc2cc(F)c(F)c(F)c2)C(=O)N(C)[C@@H](Cc2ccc(F)cc2)C(=O)N1C [Example 10568] ({CH2CO}-[Phe(3,4,5-F3)][NMePhe(4-F)][NMeNle][dP]DV[NMeF]E[dPip]WY[Dab]CG-NH2; thioether N-13)
- IC50: 1 to 9.9 nM

Compound: CCCC[C@H]1C(=O)N2CCC[C@@H]2C(=O)N[C@@H](CC(=O)O)C(=O)N[C@@H](C(C)C)C(=O)N(C)[C@@H](Cc2ccccc2)C(=O)N[C@@H](CCC(=O)O)C(=O)N2CCCC[C@@H]2C(=O)N[C@@H](Cc2c[nH]c3ccccc23)C(=O)N[C@@H](Cc2ccc(O)cc2)C(=O)N[C@@H](CN)C(=O)N[C@H](C(=O)NCC(N)=O)CSCC(=O)N[C@@H](Cc2cc(F)c(F)c(F)c2)C(=O)N(C)[C@@H](Cc2ccc(F)cc2)C(=O)N1C [Example 10569] ({CH2CO}-[Phe(3,4,5-F3)][NMePhe(4-F)][NMeNle][dP]DV[NMeF]E[dPip]WY[Dap]CG-NH2; thioether N-13)
- IC50: 1 to 9.9 nM

Compound: CCCC[C@H]1C(=O)N2CCC[C@@H]2C(=O)N[C@@H](CC(=O)O)C(=O)N[C@@H](C(C)C)C(=O)N(C)[C@@H](Cc2ccccc2)C(=O)N[C@@H](CC(=O)O)C(=O)N2CCCC[C@@H]2C(=O)N[C@@H](Cc2c[nH]c3ccccc23)C(=O)N[C@@H](Cc2ccc(O)cc2)C(=O)N[C@@H](CC(C)C)C(=O)N[C@H](C(=O)NCC(N)=O)CSCC(=O)N[C@@H](Cc2cc(F)c(F)c(F)c2)C(=O)N(C)[C@@H](Cc2ccc(F)cc2)C(=O)N1C [Example 10570] ({CH2CO}-[Phe(3,4,5-F3)][NMePhe(4-F)][NMeNle][dP]DV[NMeF]D[dPip]WYLCG-NH2; thioether N-13)
- IC50: 1 to 9.9 nM

Compound: CCCC[C@H]1C(=O)N2CCC[C@@H]2C(=O)N[C@@H](CC(=O)O)C(=O)N[C@@H](C(C)C)C(=O)N(C)[C@@H](Cc2ccccc2)C(=O)N[C@@H](CC(=O)O)C(=O)N2CCCC[C@@H]2C(=O)N[C@@H](Cc2c[nH]c3ccccc23)C(=O)N[C@@H](Cc2ccc(O)cc2)C(=O)N[C@@H](CCN)C(=O)N[C@H](C(=O)NCC(N)=O)CSCC(=O)N[C@@H](Cc2cc(F)c(F)c(F)c2)C(=O)N(C)[C@@H](Cc2ccc(F)cc2)C(=O)N1C [Example 10571] ({CH2CO}-[Phe(3,4,5-F3)][NMePhe(4-F)][NMeNle][dP]DV[NMeF]D[dPip]WY[Dab]CG-NH2; thioether N-13)
- IC50: 1 to 9.9 nM

Compound: CCCC[C@H]1C(=O)N2CCC[C@@H]2C(=O)N[C@@H](CC(=O)O)C(=O)N[C@@H](C(C)C)C(=O)N(C)[C@@H](Cc2ccccc2)C(=O)N[C@@H](CC(=O)O)C(=O)N2CCCC[C@@H]2C(=O)N[C@@H](Cc2c[nH]c3ccccc23)C(=O)N[C@@H](Cc2ccc(O)cc2)C(=O)N[C@@H](CN)C(=O)N[C@H](C(=O)NCC(N)=O)CSCC(=O)N[C@@H](Cc2cc(F)c(F)c(F)c2)C(=O)N(C)[C@@H](Cc2ccc(F)cc2)C(=O)N1C [Example 10572] ({CH2CO}-[Phe(3,4,5-F3)][NMePhe(4-F)][NMeNle][dP]DV[NMeF]D[dPip]WY[Dap]CG-NH2; thioether N-13)
- IC50: 1 to 9.9 nM

Compound: CCCC[C@H]1C(=O)N2CCC[C@@H]2C(=O)N[C@@H](CC(=O)O)C(=O)N[C@@H](C(C)C)C(=O)N(C)[C@@H](Cc2ccccc2)C(=O)N[C@@H](CC(=O)O)C(=O)N2CCCC[C@@H]2C(=O)N[C@@H](Cc2c[nH]c3ccccc23)C(=O)N[C@@H](Cc2ccc(O)cc2)C(=O)N[C@@H](CO)C(=O)N[C@H](C(=O)NCC(N)=O)CSCC(=O)N[C@@H](Cc2cc(F)c(F)c(F)c2)C(=O)N(C)[C@@H](Cc2ccc(F)cc2)C(=O)N1C [Example 10573] ({CH2CO}-[Phe(3,4,5-F3)][NMePhe(4-F)][NMeNle][dP]DV[NMeF]D[dPip]WYSCG-NH2; thioether N-13)
- IC50: 1 to 9.9 nM

Compound: CCCC[C@H]1C(=O)N2CCC[C@@H]2C(=O)N[C@@H](CC(=O)O)C(=O)N[C@@H](C(C)C)C(=O)N(C)[C@@H](Cc2ccccc2)C(=O)N[C@@H](CC(=O)O)C(=O)N2CCCC[C@@H]2C(=O)N[C@@H](Cc2c[nH]c3ccccc23)C(=O)N[C@@H](Cc2ccc(O)cc2)C(=O)N[C@@H](CC(N)=O)C(=O)N[C@H](C(=O)NCC(N)=O)CSCC(=O)N[C@@H](Cc2cc(F)c(F)c(F)c2)C(=O)N(C)[C@@H](Cc2ccc(F)cc2)C(=O)N1C [Example 10574] ({CH2CO}-[Phe(3,4,5-F3)][NMePhe(4-F)][NMeNle][dP]DV[NMeF]D[dPip]WYNCG-NH2; thioether N-13)
- IC50: 1 to 9.9 nM

Compound: CCCC[C@H]1C(=O)N2CCC[C@@H]2C(=O)N[C@@H](CCC(=O)O)C(=O)N[C@@H](C(C)C)C(=O)N(C)[C@@H](Cc2ccccc2)C(=O)N[C@@H](CCC(=O)O)C(=O)N2CCCC[C@@H]2C(=O)N[C@@H](Cc2c[nH]c3ccccc23)C(=O)N[C@@H](Cc2ccc(O)cc2)C(=O)N[C@@H](CC(C)C)C(=O)N[C@H](C(=O)NCC(N)=O)CSCC(=O)N[C@@H](Cc2cc(F)c(F)c(F)c2)C(=O)N(C)[C@@H](Cc2ccc(F)cc2)C(=O)N1C [Example 10576] ({CH2CO}-[Phe(3,4,5-F3)][NMePhe(4-F)][NMeNle][dP]EV[NMeF]E[dPip]WYLCG-NH2; thioether N-13)
- IC50: 1 to 9.9 nM

Compound: CCCC[C@H]1C(=O)N2CCC[C@@H]2C(=O)N[C@@H](CCN)C(=O)N[C@@H](C(C)C)C(=O)N(C)[C@@H](Cc2ccccc2)C(=O)N[C@@H](CCC(=O)O)C(=O)N2CCCC[C@@H]2C(=O)N[C@@H](Cc2c[nH]c3ccccc23)C(=O)N[C@@H](Cc2ccc(O)cc2)C(=O)N[C@@H](CC(C)C)C(=O)N[C@H](C(=O)NCC(N)=O)CSCC(=O)N[C@@H](Cc2cc(F)c(F)c(F)c2)C(=O)N(C)[C@@H](Cc2ccc(F)cc2)C(=O)N1C [Example 10577] ({CH2CO}-[Phe(3,4,5-F3)][NMePhe(4-F)][NMeNle][dP][Dab]V[NMeF]E[dPip]WYLCG-NH2; thioether N-13)
- IC50: 1 to 9.9 nM

Compound: CCCC[C@H]1C(=O)N2CCC[C@@H]2C(=O)N[C@@H](CN)C(=O)N[C@@H](C(C)C)C(=O)N(C)[C@@H](Cc2ccccc2)C(=O)N[C@@H](CCC(=O)O)C(=O)N2CCCC[C@@H]2C(=O)N[C@@H](Cc2c[nH]c3ccccc23)C(=O)N[C@@H](Cc2ccc(O)cc2)C(=O)N[C@@H](CC(C)C)C(=O)N[C@H](C(=O)NCC(N)=O)CSCC(=O)N[C@@H](Cc2cc(F)c(F)c(F)c2)C(=O)N(C)[C@@H](Cc2ccc(F)cc2)C(=O)N1C [Example 10578] ({CH2CO}-[Phe(3,4,5-F3)][NMePhe(4-F)][NMeNle][dP][Dap]V[NMeF]E[dPip]WYLCG-NH2; thioether N-13)
- IC50: 1 to 9.9 nM
